Patent publication US12071437B1, “Pyrazolo[1,5-a]pyrido[4,3-e]pyrimidine-2-carboxylic acids as CK2 inhibitors” (KING FAISAL UNIVERSITY, priority 2024, dated 2024)

Legend:
[1] = tested on: HCT116 (colon) cancer cells; assay: In vitro cytotoxic activity MTT assay, HCT116; type: cell-based; conditions: Homo sapiens, HCT-116, 96 hours exposure, 50% inhibition of cell proliferation, read-out: Cytotoxicity activity IC50, HCT116 (colon)
Description: (§1) Compounds 1-16 were screened for their in vitro cytotoxic activity utilizing a 3-(4,5-dimethyl-thiazol-2-yl)-2,5-diphenyltetrazolium bromide (MTT) assay against selected cancer human cell lines consisting of PC3 (prostate), HCT116 (colon), A375 (melanoma), H1299 (lung), MIAPaCa-2 (pancreas), HL60 (leukemia), MCF7 (breast), MDA-MB-231 (breast) (T. Mosmann, J. Immunol. Meth., 1983, 65, 55-63). The cells were cultured at 37° C. in RMPI1640 medium supplemented with 10% fetal bovine serum, 50 IU/mL penicillin, and 50 μg/mL streptomycin in a 5% CO2 incubator. All cells were sub-cultured 3 times/week by trypsinisation. Viable cells were seeded and allowed to adhere for 12 hours before a test drug was added in 96-well plates at an initial density of 1.0×10^5 cells/mL. Tumor cell lines were separately exposed to various concentrations of the tested compounds followed by incubation at a temperature of 37° C. during 96 hours inside a medium of fresh RMPI1640. Cells were subsequently incubated at 37° ° C. using MTT at 0.5 mg/mL during 4 hours. After removal of supernatant, formazan crystals were dissolved in isopropanol and the optical density was measured at 570 nm. CX-4945 was used as a positive control.

[2] = tested on: HL60 (leukemia) cancer cells; assay: In vitro cytotoxic activity MTT assay, HL60; type: cell-based; conditions: Homo sapiens, HL-60, 96 hours exposure, 50% inhibition of cell proliferation, read-out: Cytotoxicity activity IC50, HL60 (leukemia)
Description: as §1

[3] = tested on: MIAPaCa-2 (pancreas) cancer cells; assay: In vitro cytotoxic activity MTT assay, MIAPaCa-2; type: cell-based; conditions: Homo sapiens, MIA PaCa-2; MIAPaCa-2 cells, 96 hours exposure, 50% inhibition of cell proliferation; read-out: Cytotoxicity activity IC50, MIAPaCa-2 (pancreas)
Description: as §1

[4] = target: T1, recombinant human CK2 (RRββ-holoenzyme) (Homo sapiens, UniProt P68400); assay: CK2 Kinase Assay (33P-ATP, substrate peptide RRRDDDSDDD); type: biochemical; conditions: final ATP 15 μM, 10 min at 30° C., read-out: protein kinase CK2 inhibition IC50
T1 construct: purchased Millipore
T1 sequence (P68400 whole entry): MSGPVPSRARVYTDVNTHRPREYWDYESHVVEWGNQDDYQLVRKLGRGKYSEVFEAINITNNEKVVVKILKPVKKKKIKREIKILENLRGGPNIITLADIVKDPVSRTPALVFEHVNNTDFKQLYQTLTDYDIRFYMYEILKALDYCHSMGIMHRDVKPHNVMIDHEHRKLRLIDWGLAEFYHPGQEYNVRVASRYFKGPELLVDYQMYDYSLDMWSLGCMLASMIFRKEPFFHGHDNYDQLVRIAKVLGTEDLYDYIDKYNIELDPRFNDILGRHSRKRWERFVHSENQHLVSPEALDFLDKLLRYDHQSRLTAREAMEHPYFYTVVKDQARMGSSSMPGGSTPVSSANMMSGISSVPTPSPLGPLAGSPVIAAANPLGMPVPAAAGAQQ
T1 sequence (P67870 whole entry partner): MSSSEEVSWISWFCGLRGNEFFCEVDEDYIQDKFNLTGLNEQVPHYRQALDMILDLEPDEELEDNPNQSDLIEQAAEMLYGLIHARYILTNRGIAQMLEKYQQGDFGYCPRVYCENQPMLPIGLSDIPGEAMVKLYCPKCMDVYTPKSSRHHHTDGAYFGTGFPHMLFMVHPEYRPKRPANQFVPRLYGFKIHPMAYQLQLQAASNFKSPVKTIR
Description: CK2 Kinase Assay was conducted using the protocol as described in Pierre F. et al; J. Med. Chem. 2011, 54, 635-654. The tested compounds in aqueous solution were added at a volume of 10 μL to a reaction mixture comprising 10 μL of assay dilution buffer (ADB; 20 mM MOPS, pH 7.2, 25 mM β-glycerol phosphate, 5 mM EGTA, 1 mM sodium orthovanadate, and 1 mM dithiothreitol), 10 μL of substrate peptide (RRRDDDSDDD, dissolved in ADB at a concentration of 1 mM), 10 μL of recombinant human CK2 (RRββ-holoenzyme, 25 ng dissolved in ADB; Millipore). Reactions were initiated by the addition of 10 μL of ATP solution (90% 75 mMMgCl2, 75 μM ATP (final ATP concentration: 15 μM) dissolved in ADB; 10% [γ-33P] ATP (stock 1 mCi/100 μL; 3000 Ci/mmol (Perkin-Elmer) and maintained for 10 min at 30° C. The reactions were quenched with 100 μL of 0.75% phosphoric acid and then transferred to and filtered through a phosphor cellulose filter plate (Millipore). After washing each well five times with 0.75% phosphoric acid, the plate was dried under vacuum for 5 min and, following the addition of 15 μL of scintillation fluid to each well, the residual radioactivity was measured using a Wallac […]. The IC50 values were derived from eight concentrations of test inhibitors.

[5] = tested on: MCF7 (breast) cancer cells; assay: In vitro cytotoxic activity MTT assay, MCF7; type: cell-based; conditions: Homo sapiens, 96 hours exposure, 50% inhibition of cell proliferation, read-out: Cytotoxicity activity IC50, MCF7 (breast)
Description: as §1

[6] = tested on: MDA-MB-231 (breast) cancer cells; assay: In vitro cytotoxic activity MTT assay, MDA-MB-231; type: cell-based; conditions: Homo sapiens; MDA-MB-231 cells, 96 hours exposure, 50% inhibition of cell proliferation; read-out: Cytotoxicity activity IC50, MDA-MB-231 (breast)
Description: as §1

[7] = tested on: H1299 (lung) cancer cells; assay: In vitro cytotoxic activity MTT assay, H1299; type: cell-based; conditions: Homo sapiens, NCI-H1299, 96 hours exposure, 50% inhibition of cell proliferation, read-out: Cytotoxicity activity IC50, H1299 (lung)
Description: as §1

[8] = tested on: A375 (melanoma) cancer cells; assay: In vitro cytotoxic activity MTT assay, A375; type: cell-based; conditions: Homo sapiens, A-375, 96 hours exposure, 50% inhibition of cell proliferation, read-out: Cytotoxicity activity IC50, A375 (melanoma)
Description: as §1

[9] = tested on: PC3 (prostate) cancer cells; assay: In vitro cytotoxic activity MTT assay, PC3; type: cell-based; conditions: Homo sapiens, PC-3, 96 hours exposure, 50% inhibition of cell proliferation, read-out: Cytotoxicity activity IC50, PC3 (prostate)
Description: as §1

With `O=C(O)c1cc2nc(Nc3cccc(Cl)c3)c3ccncc3n2n1` [Compound 1, 5-((3-Chlorophenyl)Amino)Pyrazolo[1,5-a]Pyrido[4,3-e]Pyrimidine-2-Carboxylic Acid] as the molecule, how does the IC50 [1] read?
Its IC50 is 1.6 µM.

And the IC50 [2]?
Its IC50 is 3.2 µM.

And the IC50 [3]?
The IC50 was 1.3 µM.

And the IC50 [4]?
Its IC50 is 0.072 µM.

What about the IC50 [5] of the same molecule?
Its IC50 is 5.4 µM.

And the IC50 [6]?
The IC50 was 4.8 µM.

And the IC50 [7]?
The IC50 was 1.9 µM.

And the IC50 [8]?
Its IC50 is 4.5 µM.

And the IC50 [9]?
Its IC50 is 1.7 µM.
